# Test system: 422866-222-R5-J1-PDC complex spheroid viability
# Test: Anticancer human tumor 422866-222-R5-J1-PDC patient-derived pancreatic adenocarcinoma cell line growth inhibition [POLQ]
# Conditions: for IC50: curve of first compound; for viability, T/C: stronger effect = lower value
# In short: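 PDC + HUVEC + MSC complex spheroids; POLQ inhibitors ± partner drugs; top conc. at/near clinical Cmax, else 10 microM (SN-38 1 microM), half-log dilutions; 37 degrees C, 5% CO2.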
# [1] = second compound 0.0316 µM, first compound 0.0316 µM
# [2] = second compound 0.0316 µM, first compound 0.1 µM
# [3] = second compound 0.0316 µM, first compound 0.316 µM
# [4] = second compound 0.0316 µM, first compound 1 µM
# [5] = second compound 0.0316 µM, first compound 3.16 µM
# [6] = second compound 0.0316 µM, first compound 10 µM
# [7] = second compound 0.1 µM, first compound 0.0316 µM
# [8] = second compound 0.1 µM, first compound 0.1 µM
# [9] = second compound 0.1 µM, first compound 0.316 µM
# [10] = second compound 0.1 µM, first compound 1 µM
# [11] = second compound 0.1 µM, first compound 3.16 µM
# [12] = second compound 0.1 µM, first compound 10 µM
# [13] = second compound 0.316 µM, first compound 0.0316 µM
# [14] = second compound 0.316 µM, first compound 0.1 µM
# [15] = second compound 0.316 µM, first compound 0.316 µM
# [16] = second compound 0.316 µM, first compound 1 µM
# [17] = second compound 0.316 µM, first compound 3.16 µM
# [18] = second compound 0.316 µM, first compound 10 µM
# [19] = second compound 1 µM, first compound 0.0316 µM
# [20] = second compound 1 µM, first compound 0.1 µM
# [21] = second compound 1 µM, first compound 0.316 µM
# [22] = second compound 1 µM, first compound 1 µM
# [23] = second compound 1 µM, first compound 3.16 µM
# [24] = second compound 1 µM, first compound 10 µM
# [25] = second compound 3.16 µM, first compound 0.0316 µM
# [26] = second compound 3.16 µM, first compound 0.1 µM
# [27] = second compound 3.16 µM, first compound 0.316 µM
# [28] = second compound 3.16 µM, first compound 1 µM
# [29] = second compound 3.16 µM, first compound 3.16 µM
# [30] = second compound 3.16 µM, first compound 10 µM
# [31] = second compound 10 µM, first compound 0.0316 µM
# [32] = second compound 10 µM, first compound 0.1 µM
# [33] = second compound 10 µM, first compound 0.316 µM
# [34] = second compound 10 µM, first compound 1 µM
# [35] = second compound 10 µM, first compound 3.16 µM
# [36] = second compound 10 µM, first compound 10 µM
# 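Further: spheroids exposed to compounds for one week before readout.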
# 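Wherever viability, T/C is given: percent of DMSO vehicle wells luminescence so 100% = untreated viability.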
structure (smiles),measurement,setting,value
CC(=O)O[C@H]1C(=O)[C@@]2(C)[C@H]([C@H](OC(=O)c3ccccc3)[C@]3(O)C[C@H](OC(=O)[C@H](O)[C@@H](NC(=O)c4ccccc4)c4ccccc4)C(C)=C1C3(C)C)[C@]1(OC(C)=O)CO[C@@H]1C[C@@H]2O + Nc1ccc(C#CCN(C(=O)Cc2ncc(C(F)(F)F)cc2C(F)(F)F)c2ccc(F)cc2)nn1,IC50,second compound 0.0316 µM,> 3000 nM
same,IC50,second compound 0.1 µM,> 3000 nM
same,IC50,second compound 0.316 µM,< 9.49 nM
same,IC50,second compound 1 µM,> 3000 nM
same,IC50,second compound 3.16 µM,< 9.49 nM
same,IC50,second compound 10 µM,> 3000 nM
same,"viability, T/C","second compound 0.0316 µM, first compound 0.00949 µM",60.5%
same,"viability, T/C","second compound 0.0316 µM, first compound 0.03 µM",56%
same,"viability, T/C","second compound 0.0316 µM, first compound 0.0949 µM",48.5%
same,"viability, T/C","second compound 0.0316 µM, first compound 0.3 µM",51.8%
same,"viability, T/C","second compound 0.0316 µM, first compound 0.949 µM",61.9%
same,"viability, T/C","second compound 0.0316 µM, first compound 3 µM",63.6%
same,"viability, T/C","second compound 0.1 µM, first compound 0.00949 µM",56.8%
same,"viability, T/C","second compound 0.1 µM, first compound 0.03 µM",58.3%
same,"viability, T/C","second compound 0.1 µM, first compound 0.0949 µM",53.6%
same,"viability, T/C","second compound 0.1 µM, first compound 0.3 µM",46.4%
same,"viability, T/C","second compound 0.1 µM, first compound 0.949 µM",53%
same,"viability, T/C","second compound 0.1 µM, first compound 3 µM",65.4%
same,"viability, T/C","second compound 0.316 µM, first compound 0.00949 µM",53.3%
same,"viability, T/C","second compound 0.316 µM, first compound 0.03 µM",43.9%
same,"viability, T/C","second compound 0.316 µM, first compound 0.0949 µM",51.4%
same,"viability, T/C","second compound 0.316 µM, first compound 0.3 µM",53.4%
same,"viability, T/C","second compound 0.316 µM, first compound 0.949 µM",57%
same,"viability, T/C","second compound 0.316 µM, first compound 3 µM",69.5%
same,"viability, T/C","second compound 1 µM, first compound 0.00949 µM",59.8%
same,"viability, T/C","second compound 1 µM, first compound 0.03 µM",46.4%
same,"viability, T/C","second compound 1 µM, first compound 0.0949 µM",50.6%
same,"viability, T/C","second compound 1 µM, first compound 0.3 µM",51.9%
same,"viability, T/C","second compound 1 µM, first compound 0.949 µM",56.8%
same,"viability, T/C","second compound 1 µM, first compound 3 µM",65.7%
same,"viability, T/C","second compound 3.16 µM, first compound 0.00949 µM",56.1%
same,"viability, T/C","second compound 3.16 µM, first compound 0.03 µM",46.7%
same,"viability, T/C","second compound 3.16 µM, first compound 0.0949 µM",46.4%
same,"viability, T/C","second compound 3.16 µM, first compound 0.3 µM",47.8%
same,"viability, T/C","second compound 3.16 µM, first compound 0.949 µM",74.8%
same,"viability, T/C","second compound 3.16 µM, first compound 3 µM",66.1%
same,"viability, T/C","second compound 10 µM, first compound 0.00949 µM",55.3%
same,"viability, T/C","second compound 10 µM, first compound 0.03 µM",55.8%
same,"viability, T/C","second compound 10 µM, first compound 0.0949 µM",54%
same,"viability, T/C","second compound 10 µM, first compound 0.3 µM",65.8%
same,"viability, T/C","second compound 10 µM, first compound 0.949 µM",52.6%
same,"viability, T/C","second compound 10 µM, first compound 3 µM",75%
COc1cc(C2c3cc4c(cc3C(OC3OC5COC(C)OC5C(O)C3O)C3COC(=O)C23)OCO4)cc(OC)c1O (stereo unspecified) + Nc1ccc(C#CCN(C(=O)Cc2ncc(C(F)(F)F)cc2C(F)(F)F)c2ccc(F)cc2)nn1,IC50,second compound 0.0316 µM,779 nM
same,IC50,second compound 0.1 µM,906 nM
same,IC50,second compound 0.316 µM,555 nM
same,IC50,second compound 1 µM,640 nM
same,IC50,second compound 3.16 µM,367 nM
same,IC50,second compound 10 µM,534 nM
same,"viability, T/C",[1],90.9%
same,"viability, T/C",[2],97.1%
same,"viability, T/C",[3],62.7%
same,"viability, T/C",[4],49.6%
same,"viability, T/C",[5],33.5%
same,"viability, T/C",[6],30.6%
same,"viability, T/C",[7],110%
same,"viability, T/C",[8],90.1%
same,"viability, T/C",[9],76.2%
same,"viability, T/C",[10],46.4%
same,"viability, T/C",[11],31.2%
same,"viability, T/C",[12],28.8%
same,"viability, T/C",[13],123%
same,"viability, T/C",[14],92.1%
same,"viability, T/C",[15],55.5%
same,"viability, T/C",[16],47.1%
same,"viability, T/C",[17],29.2%
same,"viability, T/C",[18],36.9%
same,"viability, T/C",[19],94.3%
same,"viability, T/C",[20],100%
same,"viability, T/C",[21],68.5%
same,"viability, T/C",[22],40.6%
same,"viability, T/C",[23],32.1%
same,"viability, T/C",[24],35.5%
same,"viability, T/C",[25],93.3%
same,"viability, T/C",[26],81.4%
same,"viability, T/C",[27],48.2%
same,"viability, T/C",[28],47.1%
same,"viability, T/C",[29],37.6%
same,"viability, T/C",[30],31.6%
same,"viability, T/C",[31],103%
same,"viability, T/C",[32],88.9%
same,"viability, T/C",[33],55.4%
same,"viability, T/C",[34],43.6%
same,"viability, T/C",[35],38.4%
same,"viability, T/C",[36],31.6%
O=c1[nH]cc(F)c(=O)[nH]1 + Nc1ccc(C#CCN(C(=O)Cc2ncc(C(F)(F)F)cc2C(F)(F)F)c2ccc(F)cc2)nn1,IC50,second compound 0.0316 µM,> 10000 nM
same,IC50,second compound 0.1 µM,> 10000 nM
same,IC50,second compound 0.316 µM,> 10000 nM
same,IC50,second compound 1 µM,> 10000 nM
same,IC50,second compound 3.16 µM,> 10000 nM
same,IC50,second compound 10 µM,> 10000 nM
same,"viability, T/C",[1],108%
same,"viability, T/C",[2],102%
same,"viability, T/C",[3],89.4%
same,"viability, T/C",[4],88.2%
same,"viability, T/C",[5],89.1%
same,"viability, T/C",[6],79.3%
same,"viability, T/C",[7],113%
same,"viability, T/C",[8],90.9%
same,"viability, T/C",[9],92.4%
same,"viability, T/C",[10],96.2%
same,"viability, T/C",[11],83.2%
same,"viability, T/C",[12],76.7%
same,"viability, T/C",[13],99.2%
same,"viability, T/C",[14],106%
same,"viability, T/C",[15],100%
same,"viability, T/C",[16],93.4%
same,"viability, T/C",[17],75.9%
same,"viability, T/C",[18],84.7%
same,"viability, T/C",[19],101%
same,"viability, T/C",[20],111%
same,"viability, T/C",[21],108%
same,"viability, T/C",[22],92.4%
same,"viability, T/C",[23],90.1%
same,"viability, T/C",[24],83.4%
same,"viability, T/C",[25],95%
same,"viability, T/C",[26],132%
same,"viability, T/C",[27],102%
same,"viability, T/C",[28],104%
same,"viability, T/C",[29],88.3%
same,"viability, T/C",[30],82.6%
same,"viability, T/C",[31],101%
same,"viability, T/C",[32],118%
same,"viability, T/C",[33],97.1%
same,"viability, T/C",[34],100%
same,"viability, T/C",[35],78.3%
same,"viability, T/C",[36],83.8%
